For 19 compounds, IC50 results are on record in ChEMBL document CHEMBL3886941 (2016).

The test deals with Transient receptor potential M8 protein (Canis lupus familiaris, UniProt Q1A7N1). The test is described as follows: Functional Assay: The functional activity of compounds of the formula (I) was determined by measuring changes in intracellular calcium concentration using a Ca2+-sensitive fluorescent dye. The changes in fluorescent signal were monitored by a fluorescence plate reader, either a FLIPR (Molecular Devices) or FDSS (Hamamatsu). Increases in intracellular Ca2+ concentration were readily detected upon activation with icilin.At 24 hrs prior to assay, HEK293 cells stably expressing canine TRPM8 were seeded in culture medium in black wall, clear-base poly-D-lysine coated 384-well plates (BD Biosciences, NJ, USA) and grown overnight in 5% CO2 at 37° C. On assay day, growth media was removed and cells were loaded with Calcium 3 Dye (Molecular Devices) for 35 min at 37° C., under 5% CO2 and then for 25 min at room temperature and atmosphere. Subsequently, cells were tested for agonist-induced increases in intracellular Ca2+ levels using FLIPR or FDSS. Cells were challenged with a compound of the Formula (I) (at varying concentrations) and intracellular Ca2+ was measured for 5 min prior to the addition of icilin to all wells to achieve a final concentration that produces approximately an 80% maximal response. EC50 or IC50 values for compounds of the present invention were determined from eight-point dose-response studies. The class given is cell-based.
Sequence of Transient receptor potential M8 protein (Q1A7N1 whole entry): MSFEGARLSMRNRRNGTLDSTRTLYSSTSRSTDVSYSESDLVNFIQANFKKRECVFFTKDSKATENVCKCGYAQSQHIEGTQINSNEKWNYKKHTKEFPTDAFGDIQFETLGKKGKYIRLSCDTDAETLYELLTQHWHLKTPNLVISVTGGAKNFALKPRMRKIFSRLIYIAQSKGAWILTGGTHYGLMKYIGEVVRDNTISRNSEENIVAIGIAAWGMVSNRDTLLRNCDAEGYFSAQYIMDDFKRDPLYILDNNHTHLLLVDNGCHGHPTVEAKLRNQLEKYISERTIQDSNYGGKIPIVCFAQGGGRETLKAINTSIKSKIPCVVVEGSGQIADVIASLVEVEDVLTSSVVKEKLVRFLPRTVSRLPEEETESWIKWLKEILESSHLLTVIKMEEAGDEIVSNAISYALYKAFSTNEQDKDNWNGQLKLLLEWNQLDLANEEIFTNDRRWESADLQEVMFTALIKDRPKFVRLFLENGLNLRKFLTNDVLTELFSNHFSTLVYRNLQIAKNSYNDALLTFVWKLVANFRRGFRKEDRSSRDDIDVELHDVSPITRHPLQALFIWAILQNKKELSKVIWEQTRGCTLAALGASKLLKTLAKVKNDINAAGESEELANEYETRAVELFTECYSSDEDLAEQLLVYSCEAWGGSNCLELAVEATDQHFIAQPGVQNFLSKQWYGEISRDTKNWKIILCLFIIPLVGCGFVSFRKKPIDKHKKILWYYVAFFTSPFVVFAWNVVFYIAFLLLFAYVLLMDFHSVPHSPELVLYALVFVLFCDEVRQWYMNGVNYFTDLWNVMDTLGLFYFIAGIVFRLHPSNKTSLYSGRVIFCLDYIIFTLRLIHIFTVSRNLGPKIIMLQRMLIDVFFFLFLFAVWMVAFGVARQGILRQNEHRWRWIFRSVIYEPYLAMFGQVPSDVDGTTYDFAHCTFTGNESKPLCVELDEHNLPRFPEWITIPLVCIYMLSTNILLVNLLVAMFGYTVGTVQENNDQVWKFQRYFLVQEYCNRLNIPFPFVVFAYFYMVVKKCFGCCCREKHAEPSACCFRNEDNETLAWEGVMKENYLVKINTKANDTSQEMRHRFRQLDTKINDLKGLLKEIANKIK
The term IC50 denotes the midpoint of a concentration-inhibition curve. As to `Cc1c(N(Cc2ccc3c(c2)OC(F)(F)O3)S(=O)(=O)c2ccc(C(=O)O)cc2)sc2ccccc12`, the IC50 is 2 nM.
Regarding `O=c1[nH]c(-c2ccc(S(=O)(=O)N(CCCCC(F)(F)F)c3sc4ccccc4c3Br)cc2)no1`, the IC50 turned out to be 7.9 nM.
Consider `Cc1c(N(Cc2cc(Cl)ccc2Cl)S(=O)(=O)c2ccc(C(=O)O)cc2)sc2ccccc12`, for which the half-inhibitory concentration (IC50) worked out at 9 nM.
Next, `CCS(=O)(=O)N(Cc1ccc(F)c(F)c1)c1sc2ccccc2c1C(C)=O`: 15 nM; `CCCCN(c1sc2ccccc2c1C(C)O)S(=O)(=O)CC` (centres undefined): 38 nM.
Take `CCCN(c1sc2ccccc2c1C)S(=O)(=O)c1ccc(C(=O)O)cc1`: the IC50 was 53 nM.
Under `COc1ccc(CN(c2sc3ccccc3c2C)S(=O)(=O)c2ccc(C(=O)O)cc2)cc1OC` stands 6 nM; under `O=c1[nH]c(-c2ccc(S(=O)(=O)N(CCC(F)(F)F)c3sc4ccccc4c3Br)cc2)no1`, 18.1 nM.
Next, `O=S(=O)(c1ccc(-c2nnn[nH]2)cc1)N(CCC(F)(F)F)c1sc2ccccc2c1Br`: 19 nM; `O=S(=O)(c1cccs1)N(Cc1ccc(F)c(C(F)(F)F)c1)c1sc2ccccc2c1Cl`: 6 nM; `Cc1c(N(Cc2ccccc2)S(=O)(=O)c2ccc(C(=O)O)cc2)sc2ccccc12`: 4 nM.
Turning to `O=S(=O)(c1ccc(-c2nnn[nH]2)cc1)N(CCC1CC1)c1sc2ccccc2c1Br`, the IC50 was 6 nM.
With `CC(C)(C)OC(=O)N1CCCC1CN(c1sc2ccccc2c1Cl)S(=O)(=O)c1ccccc1` (centres undefined), the 50% inhibitory concentration (IC50) was determined as 205 nM.
For the compound `O=S(=O)(c1ccc(-c2nnn[nH]2)cc1)N(CCCCC(F)(F)F)c1sc2ccccc2c1Br`, the IC50 stood at 8.8 nM.
Next, `O=[N+]([O-])c1cccc(CN(c2sc3ccccc3c2Br)S(=O)(=O)c2ccccc2)c1`: 10.4 nM; `O=S(=O)(c1ccccc1)N(CCc1ccccc1)c1sc2ccccc2c1Cl`: 24 nM; `CCS(=O)(=O)N(Cc1ccc(F)c(OC)c1)c1sc2ccccc2c1C(C)(C)O`: 4.1 nM.
Under `COC(=O)CCS(=O)(=O)N(CCC(F)(F)F)c1sc2ccccc2c1C` stands 24.1 nM; under `O=S(=O)(CC(F)(F)F)N(Cc1ccc(F)c(C(F)(F)F)c1)c1sc2ccccc2c1CO`, 15 nM.
